Laboratory results as given in patent US12110533B2, “Stabilisation and isolation of extracellular nucleic acids” (Qiagen GmbH, priority 2011, dated 2024).
pIC50: −log10 of the molar value. Peptide text beside a SMILES is read from it. * marks the point of attachment. Cbz = O=C(OCc1ccccc1)*; CH2Cl = ClC*; CH2F = FC*

What was measured:
calpain II = target: T1, calpain II (Homo sapiens, UniProt P17655); conditions: irreversible inhibitor; cited from earlier work
T1 sequence (P17655 1-700): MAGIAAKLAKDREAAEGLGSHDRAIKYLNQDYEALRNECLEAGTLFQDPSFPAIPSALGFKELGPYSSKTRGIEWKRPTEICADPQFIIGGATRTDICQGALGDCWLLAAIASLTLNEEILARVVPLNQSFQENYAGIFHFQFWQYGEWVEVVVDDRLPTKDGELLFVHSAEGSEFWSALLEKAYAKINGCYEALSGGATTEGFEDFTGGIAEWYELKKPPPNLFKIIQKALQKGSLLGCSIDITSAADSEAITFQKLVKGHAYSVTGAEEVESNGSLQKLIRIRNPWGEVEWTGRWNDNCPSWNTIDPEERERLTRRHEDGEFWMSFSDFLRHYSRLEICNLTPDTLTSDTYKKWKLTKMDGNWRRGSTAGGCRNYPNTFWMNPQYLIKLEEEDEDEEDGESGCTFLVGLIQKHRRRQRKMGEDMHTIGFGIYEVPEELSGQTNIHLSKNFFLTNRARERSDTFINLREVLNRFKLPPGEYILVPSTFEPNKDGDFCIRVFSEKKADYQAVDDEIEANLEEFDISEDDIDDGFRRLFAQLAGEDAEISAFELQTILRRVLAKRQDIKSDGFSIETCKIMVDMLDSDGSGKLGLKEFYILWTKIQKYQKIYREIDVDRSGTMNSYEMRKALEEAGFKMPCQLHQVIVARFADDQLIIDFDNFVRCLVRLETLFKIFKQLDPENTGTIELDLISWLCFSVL
T1 sequence (P04632 1-268 partner): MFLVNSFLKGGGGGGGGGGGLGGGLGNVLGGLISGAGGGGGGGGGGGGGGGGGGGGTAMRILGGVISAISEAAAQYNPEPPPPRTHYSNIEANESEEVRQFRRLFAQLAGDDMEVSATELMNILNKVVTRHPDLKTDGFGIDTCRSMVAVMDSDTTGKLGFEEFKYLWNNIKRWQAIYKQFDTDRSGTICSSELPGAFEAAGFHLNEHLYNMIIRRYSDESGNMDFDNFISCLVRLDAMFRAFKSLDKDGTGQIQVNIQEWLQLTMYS

cathepsin L = cathepsin L (Homo sapiens, UniProt P07711); conditions: cited from earlier work
fragmentin 2 = target: T2, fragmentin 2 (Rattus norvegicus, UniProt P18291); conditions: read-out: ID50 (the source's name); cited from earlier work
T2 sequence (P18291 21-248): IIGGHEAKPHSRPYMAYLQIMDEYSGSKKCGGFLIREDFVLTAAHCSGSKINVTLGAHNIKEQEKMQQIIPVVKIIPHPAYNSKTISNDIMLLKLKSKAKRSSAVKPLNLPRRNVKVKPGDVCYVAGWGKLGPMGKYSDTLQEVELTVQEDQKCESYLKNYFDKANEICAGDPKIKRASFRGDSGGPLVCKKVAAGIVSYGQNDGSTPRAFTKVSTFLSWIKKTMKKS

[1] = administered in rats in vivo; cited from earlier work
whole blood samples [2] = test: Chip gel electrophoresis of DNA isolated from plasma of stored whole blood (DNA size distribution, blood cell stability/DNA release); type: cell-based; conditions: for ladder-like pattern (release/fragmentation of genomic DNA): Example 1, 20 μM in 10 ml K2E whole blood, RT, day 3 and day 7, vs DMSO control and K2E blood; for genomic DNA release/fragmentation: Example 2, day 7, RT
Protocol: A test system was designed, wherein cell-containing biological samples, here whole blood samples, were incubated at room temperature (RT) for up to 6 or 7 days. Therein, the sample stabilizing properties of the additives of the present invention were tested on day 0, day 3 and day 6/7 the samples. The samples were processed according to the following protocols, where applicable (for details, see also the specific examples in the results section):
To separate the blood plasma from the whole blood, the blood samples were centrifuged for 15 min at 5000 rpm, and the obtained plasma samples were again centrifuged for 10 min at 16,000×g at 4° C.
(§1) The circulating, extracellular nucleic acids were purified from the obtained plasma samples using the QIAamp® Circulating NA Kit (according to the handbook). In brief: • 10 ml sample input; • lysis: 1 ml Proteinase K and 8 ml Buffer ACL (QIAGEN) • binding: 18 ml Buffer ACB (QIAGEN) • wash-steps: unchanged and according to handbook • elution in 60 μl Buffer AVE (QIAGEN)
4.1. Measurement of the blood cell stability/DNA release by the determination of DNA size distribution using a chip gel electrophoresis (2100 Bioanalyzer; Agilent Technologies; Inc., USA) according to manufacturer's instruction (see handbook Agilent DNA 7500 and DNA 12000 Kit Guide), but 1.5 μl instead of 1 μl sample were transferred to the wells.
The eluted circulating cell-free DNA was separated by size using chip gel electrophoresis (for details on the method see above, I, 4.1). […] The DMSO control and the K2E blood (not treated according to the teachings of the present invention) show the same ladder-like pattern of bands. This pattern occurs in samples where apoptosis takes place. During apoptosis, endonucleases degrade genomic DNA at inter-nucleosomal linker regions and produce DNA fragments of circa 180 bp or multiples of 180 bp. Thus, apoptosis occurs in samples which show a clear ladder-like pattern. Furthermore, the strength (darkness) of the pattern is decisive. The darker the bands, the more genomic DNA was released from the cells and thus contaminates the extracellular nucleic acid population.

whole blood samples [3] = test: 18S DNA duplex real time PCR assay: increase of ribosomal 18S DNA (ccfDNA) in plasma of stored whole blood; type: cell-based, human; conditions: for increase of ribosomal 18S DNA in plasma: Example 1, 20 μM in whole blood; for increase of ribosomal 18S DNA in plasma / increase of genomic DNA in plasma: within 7 days of storage at RT; for increase of genomic DNA in plasma: Example 2; for change of ccfDNA level in plasma (day X copies/day 0 copies): Example 8, RT up to 6 days, DHA 0.5 M, inositol 0.05 M, maltitol 0.01 M, mannitol
Protocol: A test system was designed, wherein cell-containing biological samples, here whole blood samples, were incubated at room temperature (RT) for up to 6 or 7 days. Therein, the sample stabilizing properties of the additives of the present invention were tested on day 0, day 3 and day 6/7 the samples.
as §1
4.2. DNA quantification with a real time PCR assay, sensitive for DNA degradation (target: 500 and 66 bp long ribosomal 18S DNA coding sequences).
(samples were diluted 1:10 before amplification)
Detection of ribosomal 18S DNA by quantitative real-time PCR, makes it possible to calculate the x-fold increase of DNA from day 0 to day 3 or 7 (calculation: division of day 3 (or 7) copies by day 0 copies).
The division of short amplicon copy number by long amplicon copy number (66 bp/500 bp) indicates whether the amount of detected short or long amplicons changes over time in a similar way. A decrease of this ratio implies a stronger release of longer rather than of shorter DNA molecules and can be interpreted as release of high molecular weight genomic DNA from blood cells.
On day 0, day 3 and day 6, replicates were processed as follows. […] The cleared plasma fraction was collected and the extracellular nucleic acids were isolated using the QIAamp Circulating nucleic acid kit (1 ml input material, 60 μl elution volume). […] Values that are close to 1 imply preserved levels of ccfDNA. The higher the value, the less stabilization is achieved.

Chain of cathepsin L (P07711 114-333, species assumed): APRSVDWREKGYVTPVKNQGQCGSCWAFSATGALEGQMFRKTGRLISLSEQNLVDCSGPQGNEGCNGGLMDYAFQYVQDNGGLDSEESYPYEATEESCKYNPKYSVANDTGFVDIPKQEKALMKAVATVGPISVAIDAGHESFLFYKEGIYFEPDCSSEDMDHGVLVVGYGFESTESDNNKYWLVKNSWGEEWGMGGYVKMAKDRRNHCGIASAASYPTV

## CC(C)C[C@H](NC(=O)OCc1ccccc1)C(=O)N[C@@H](CC(C)C)C(=O)N[C@@H](Cc1ccc(O)cc1)C(=O)CF [Calpain Inhibitor IV, Z-Leu-Leu-Tyr-CH2F] (Cbz-Leu-Leu-Tyr-CH2F)
Calpain II
  k2: 28,900 M-1s-1). Also acts as an inhibitor of cathepsin L (k2 =
Cathepsin L
  k2: 680,000 M-1s-1).

## CC(NC(=O)OCc1ccccc1)C(=O)NC(C)C(=O)NC(CC(=O)O)C(=O)CCl (stereo not drawn) [Granzyme B Inhibitor I, Z-Ala-Ala-Asp-CH2Cl] (Cbz-Ala-Ala-Asp-CH2Cl; configuration not given here)
Fragmentin 2
  pIC50: 6.52

## N=c1sc2c(n1CC(=O)c1ccc([N+](=O)[O-])cc1)CCCC2 [Pifithrin-α, ρ-Nitro]
[1]
  more potent than Pifithrin-α in vivo: 100-fold more potent than Pifithrin-α when adminstered in rats in

## CC(C)C(NC(=O)c1ccc2ccccc2n1)C(=O)NC(CC(=O)O)C(=O)COc1c(F)cccc1F (stereo not drawn) [Q-VD-OPh, Quinoline-Val-Asp-CH2-OPH]
Whole blood samples [2]
  ladder-like pattern (release/fragmentation of genomic DNA): significantly reduced ladder-like patterns
Whole blood samples [2]; 1 μM with 21.4 mM glucose
  genomic DNA release/fragmentation: significantly reduced
Whole blood samples [2]; 4 μM with 21.4 mM glucose
  genomic DNA release/fragmentation: effect is improved
Whole blood samples [3]
  increase of ribosomal 18S DNA in plasma: reduced increase of DNA
Whole blood samples [3]; 1 μM with 21 mM glucose
  increase of genomic DNA in plasma: only a minor increase
Whole blood samples [3]; 4 μM with 21 mM glucose
  increase of genomic DNA in plasma: ≤ 4 fold

## O[C@H]1[C@H](O)[C@@H](O)[C@H](O)[C@@H](O)[C@H]1O [inositol, Cyclohexane-1,2,3,4,5,6-geksol]
Whole blood samples [3]
  change of ccfDNA level in plasma (day X copies/day 0 copies): suitable alternatives

## OC[C@@H](O)[C@@H](O[C@H]1O[C@H](CO)[C@@H](O)[C@H](O)[C@H]1O)[C@H](O)[C@@H](O)CO [maltitol, 4-O-α-D-Glucopyranosyl-D-glucitol]
Whole blood samples [3]
  change of ccfDNA level in plasma (day X copies/day 0 copies): suitable alternatives

## OCC(O)C(O)C(O)C(O)CO (stereo not drawn) [mannitol, Hexane-1,2,3,4,5,6-hexol]
Whole blood samples [3]
  change of ccfDNA level in plasma (day X copies/day 0 copies): stabilization effects over 3 days

## Cbz-Val-Ala-Asp(OMe)-CH2F
Whole blood samples [2]
  ladder-like pattern (release/fragmentation of genomic DNA): reduced ladder-like pattern
Whole blood samples [3]
  increase of ribosomal 18S DNA in plasma: more prominent on day 7
